Series [1] deals with P. aeruginosa (ATCC 19429). The series is described as follows: Galleria mellonella infection by P. aeruginosa, treatment survival. It is filed as in vivo. The note with it: 1 × 10^3 CFU P. aeruginosa, single dose 5 μg ciprofloxacin.
For series [2], the system named is red blood cells. The settings on record: 100 μg/ml peptide; ref de Latour et al., 2010; Dean et al., 2011; cited from earlier work.

On to `O=C(O)c1cn(C2CC2)c2cc(N3CCNCC3)c(F)cc2c1=O` [ciprofloxacin], for which, in series [1], the “effectiveness at prolonging survival vs infected control, in words” value is listed as “effective”.
In the case of ATRA, in series [2], the hemolysis entry is recorded as “no significant hemolysis”.

The values are drawn from PMC3131519 (Frontiers in Microbiology, 2011).
